The results in this text go back to patent US7034056B2, “Aryl and biaryl compounds having MCH modulatory activity” (Pharmacopeia Drug Discovery, inc., priority 2001, dated 2006).

For one assay, the target named is T1, hMCHR (MCH receptor) (Homo sapiens, UniProt Q99705).
T1 construct: (or internally produced); host or cells: CHO (Chinese hamster ovary) cells, membrane preparation
T1 sequence (Q99705 whole entry): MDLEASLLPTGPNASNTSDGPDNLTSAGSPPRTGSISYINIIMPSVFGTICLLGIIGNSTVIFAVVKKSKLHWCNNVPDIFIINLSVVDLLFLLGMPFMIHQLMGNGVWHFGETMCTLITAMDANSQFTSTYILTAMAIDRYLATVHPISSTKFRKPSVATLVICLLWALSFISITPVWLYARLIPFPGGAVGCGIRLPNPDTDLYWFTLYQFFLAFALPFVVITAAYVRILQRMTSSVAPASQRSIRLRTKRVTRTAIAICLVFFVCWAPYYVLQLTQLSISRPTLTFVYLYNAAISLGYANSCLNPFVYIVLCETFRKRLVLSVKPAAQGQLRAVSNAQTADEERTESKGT
Nature of the assay: MCH Assay PCOP Protocol ([125I]-MCH SPA binding to hMCHR-CHO membranes).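 For Activity (Ki range): A 0.4–50 nM B 51–500 nM C 501–2500 nM.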 The settings on record: [125I]-MCH 0.5 nM, hMCHR-CHO membranes; read-out: Activity (ranges of Ki values). The method, then: A reaction mixture of 10 μg hMCHR-CHO overexpressing membranes (from Receptor Biology, Inc., Beltsville, Md., or internally produced) and 100 μg/well WGA-SPA beads (from Amersham Pharmacia Biotech, Inc., Piscataway, N.J.)/100 μl was prepared in MCHR assay buffer (25 mM HEPES, pH 7.4, 10 mM NaCl, 10 mM MgCl2, 5 mM MnCl2, 0.1% BSA). […] The assay plates were shaken for 5 minutes on a plate shaker, then incubated for 2 hours before cpm/well were determined in a Microbeta Trilux counter (from PerkinElmer Wallac, Inc., Gaithersburg, Md.).
For `N#Cc1cccc(-c2ccc(C(CCN3CCOCC3)CNC(=O)Nc3cc(Cl)cc(Cl)c3)cc2)c1` (stereo not drawn) [Example 81], the inhibition constant Ki – broadly, a measure of affinity in units of concentration, obtained from inhibition or displacement – was in the range of 0.4 to 50 nM. On to `COc1cscc1C(=O)NC1CCN(CCC(CNC(=O)Nc2cc(Cl)cc(Cl)c2)c2ccc(Cl)cc2)C1` (stereo not drawn) [Example 197], for which the Ki lay in the range of 51 to 500 nM. The same measure, in the same setting: the figure for `CN(C)CCCNCCC(CNC(=O)Nc1cc(Cl)cc(Cl)c1)c1ccc2c(c1)OCO2` (stereo not drawn) [Example 116] is 501 to 2500 nM; for `N#Cc1cccc(-c2ccc(C(CCNC3CCCC3)CNC(=O)c3cc(Cl)cc(Cl)c3)cc2)c1` (stereo not drawn) [Example 82] it is 51 to 500 nM; for `CN(C)CCC(CNC(=O)Nc1cccnc1)c1ccc(-c2cccc(C#N)c2)cc1` (stereo not drawn) [Example 71] it is 51 to 500 nM. In the case of `N#Cc1cccc(-c2ccc(C(CCNC3CC3)CNC(=O)Nc3ccc(Cl)cc3)cc2)c1` (stereo not drawn) [Example 65], the Ki lay in the range of 0.4 to 50 nM. For the compound `O=C(NCC(CCNC1CCNC1)c1ccc(Cl)c(Cl)c1)Nc1ccc(Cl)c(Cl)c1` (stereo not drawn) [Example 135], the inhibition constant (Ki) lay within 51 to 500 nM.

On to `CC(=O)NC1CCN(CCC(CNC(=O)Nc2cc(Cl)cc(Cl)c2)c2ccc(Cl)c(Cl)c2)CC1` (stereo not drawn) [Example 199], for which the Ki fell in the range of 51 to 500 nM. Take `O=C(NCC(CCNCCc1ccc(O)cc1)c1ccc(Cl)c(Cl)c1)Nc1ccc(F)c(F)c1` (stereo not drawn) [Example 140]: the Ki lay in the range of 501 to 2500 nM.

On to `CN(C)CCCNCCC(CNC(=O)Nc1cc(Cl)cc(Cl)c1)c1cccc(-c2ccc3c(c2)OCO3)c1` (stereo not drawn) [Example 163], for which the Ki fell in the range of 501 to 2500 nM. As for `COc1cscc1C(=O)NC1CCN(CCC(CNC(=O)Nc2cc(Cl)cc(Cl)c2)c2ccc(Cl)c(Cl)c2)C1` (stereo not drawn) [Example 200], the inhibition constant Ki lay within 501 to 2500 nM.

With `CN(C)CCCNCCC(CNC(=O)Nc1cc(Cl)cc(Cl)c1)c1cccc(-c2ccccc2)c1` (stereo not drawn) [Example 171], the inhibition constant (Ki) fell in the range of 501 to 2500 nM.

Take `O=C(NCC(CCN1CCC(NC(=O)c2cccs2)CC1)c1ccc(Cl)c(Cl)c1)Nc1cc(Cl)cc(Cl)c1` (stereo not drawn) [Example 212]: the Ki lay in the range of 501 to 2500 nM.

Take `Cc1ccc(-c2cccc(C(CCNC3CCCC3)CNC(=O)Nc3cc(Cl)cc(Cl)c3)c2)cc1` (stereo not drawn) [Example 161]: the Ki fell in the range of 501 to 2500 nM. Same read-out and setting: under `COc1cc(CNCCC(CNC(=O)Nc2ccc(F)c(Cl)c2)c2ccc(Cl)c(Cl)c2)cc(OC)c1OC` (stereo not drawn) [Example 126] stands 51 to 500 nM; under `O=C(NCC(CCN1CCC(NC(=O)c2ccno2)CC1)c1ccc(Cl)cc1)Nc1cc(Cl)cc(Cl)c1` (stereo not drawn) [Example 214], 501 to 2500 nM; under `CC(=O)NC1CCN(CCC(CNC(=O)Nc2cc(Cl)cc(Cl)c2)c2ccc(Cl)cc2)CC1` (stereo not drawn) [Example 196], 51 to 500 nM. As for `O=C(NCC(CCNC1CCCC1)c1cccc(-c2ccc(F)cc2)c1)Nc1cc(Cl)cc(Cl)c1` (stereo not drawn) [Example 155], the Ki fell in the range of 51 to 500 nM. Take `COCCNCCC(CNC(=O)Nc1cc(Cl)cc(Cl)c1)c1ccc(-c2cccc(C#N)c2)cc1` (stereo not drawn) [Example 72]: the Ki was in the range of 0.4 to 50 nM. On the same count and under the same terms, under `CC(CCNC1CCCC1)(CNC(=O)Nc1ccc(F)c([N+](=O)[O-])c1)c1ccc(Cl)c(Cl)c1` (stereo not drawn) [Example 113] stands 501 to 2500 nM. On to `COCC(=O)NC1CCN(CCC(CNC(=O)Nc2cc(Cl)cc(Cl)c2)c2ccc(Cl)cc2)C1` (stereo not drawn) [Example 194], for which the Ki was 51 to 500 nM. In the case of `CN(C)CCC(CNC(=O)Nc1cc(Cl)cc(Cl)c1)c1ccc(-c2cccc(C(N)=O)c2)cc1` (stereo not drawn) [Example 38], the Ki lay in the range of 0.4 to 50 nM. `CN(C)CCCNCCC(CNC(=O)Nc1cc(Cl)cc(Cl)c1)c1ccc(-c2cccnc2)cc1` (stereo not drawn) [Example 35]: the Ki fell in the range of 0.4 to 50 nM. On to `O=C(NCC(CCNC1CCCC1)c1ccc2c(c1)OCO2)Nc1ccc(F)c([N+](=O)[O-])c1` (stereo not drawn) [Example 121], for which the Ki is 501 to 2500 nM. The same measure, in the same setting: under `N#Cc1cccc(-c2ccc(C(CCNC3CCCC3)CNC(=O)c3cccc(Cl)c3)cc2)c1` (stereo not drawn) [Example 85] stands 51 to 500 nM; under `CN(C)CCCNCCC(CNC(=O)Nc1cc(Cl)cc(Cl)c1)c1ccc(-c2cc(F)cc(F)c2)cc1` (stereo not drawn) [Example 99], 51 to 500 nM. Consider `N#Cc1cccc(-c2ccc(C(CCNC3CC3)CNC(=O)Nc3ccccc3)cc2)c1` (stereo not drawn) [Example 58], for which the Ki lay in the range of 0.4 to 50 nM. In the case of `N#Cc1cccc(-c2ccc(C(CCNC3CCCC3)CNC(=O)Nc3ccc(F)c(F)c3)cc2)c1` (stereo not drawn) [Example 74], the Ki fell in the range of 0.4 to 50 nM.

For `N#Cc1cccc(-c2ccc(C(CCNC3CCCC3)CNC(=O)c3ccc(F)c(F)c3)cc2)c1` (stereo not drawn) [Example 83], the inhibitory constant (Ki) was in the range of 51 to 500 nM.

Staying with this assay, now noted: [125I]-MCH SPA binding, hMCHR-CHO membranes; Ki class ranges; read-out: Activity (range of Ki).
Take `Cc1ccc(C(=O)NCC(CCN2CCCCC2)c2ccc(Cl)c(Cl)c2)cc1` (stereo not drawn) [Example 450]: the Ki is 501 to 2500 nM. For the compound `Cc1cc(C)cc(C(=O)NCC(CCN2CCCCC2)c2ccc(Cl)c(Cl)c2)c1` (stereo not drawn) [Example 456], the Ki fell in the range of 501 to 2500 nM. With `COCC1CCCN1CCC(CNC(=O)Nc1cc(C(F)(F)F)cc(C(F)(F)F)c1)c1ccc(Cl)c(Cl)c1` (stereo not drawn) [Example 441], the inhibition constant (Ki) lay within 501 to 2500 nM. Regarding `O=C(NCC(CCN1CCCC1)c1ccc(Cl)c(Cl)c1)Nc1cc(C(F)(F)F)cc(C(F)(F)F)c1` (stereo not drawn) [Example 422], the Ki lay within 51 to 500 nM. With `COc1cc(CN(C)CCC(CNC(=O)Nc2cc(C(F)(F)F)cc(C(F)(F)F)c2)c2ccc(Cl)c(Cl)c2)cc(OC)c1OC` (stereo not drawn) [Example 421], the Ki lay in the range of 51 to 500 nM. In the case of `O=C(NCC(CCN1CCC(N2CCCCC2)CC1)c1ccc(Cl)c(Cl)c1)c1cc(Cl)cc(Cl)c1` (stereo not drawn) [Example 452], the Ki lay in the range of 501 to 2500 nM. Turning to `CC1CCCCN1CCC(CNC(=O)c1cc(C(F)(F)F)cc(C(F)(F)F)c1)c1ccc(Cl)c(Cl)c1` (stereo not drawn) [Example 419], the Ki fell in the range of 501 to 2500 nM. On the same count and under the same terms, the figure for `CCN1CCCC1CNCCC(CNC(=O)Nc1cc(C(F)(F)F)cc(C(F)(F)F)c1)c1ccc(Cl)c(Cl)c1` (stereo not drawn) [Example 423] is 51 to 500 nM.

Staying with this assay, now noted: [125I]-MCH binding to hMCHR-CHO membranes; class symbols for ranges of Ki; read-out: Activity (Ki range).
Regarding `O=C(NCC(CCNC1CCCC1)c1ccc(Cl)c(Cl)c1)Nc1cc(C(F)(F)F)cc(C(F)(F)F)c1` (stereo not drawn) [Example 328], the Ki is 0.4 to 50 nM.

Consider `CCNC(=O)NC1CCN(CCC(CNC(=O)Nc2cc(Cl)cc(Cl)c2)c2ccc(Cl)c(Cl)c2)CC1` (stereo not drawn) [Example 323], for which the Ki lay in the range of 501 to 2500 nM. Consider `O=C(NCC(CCN1CCCC1)c1ccc(Cl)cc1)Nc1cc(C(F)(F)F)cc(C(F)(F)F)c1` (stereo not drawn) [Example 329], for which the inhibition constant Ki lay within 51 to 500 nM. `COc1ccc(-c2ccc(C(CCNC3CCCC3)CNC(=O)Nc3cc(Cl)cc(Cl)c3)cc2)cc1` (stereo not drawn) [Example 241]: the Ki is 51 to 500 nM. Regarding `CN(C)CCCNCCC(CNC(=O)Nc1cccc(C(F)(F)F)c1)c1ccc(Cl)c(Cl)c1` (stereo not drawn) [Example 310], the Ki was in the range of 501 to 2500 nM. As for `Cc1ccc(C(CCN2CCCCC2)CNC(=O)Nc2cc(Cl)ccc2Cl)cc1` (stereo not drawn) [Example 353], the Ki was 51 to 500 nM. As to `CCN1CCCC1CNCCC(CNC(=O)c1cc(C(F)(F)F)cc(C(F)(F)F)c1)c1ccc(Cl)c(Cl)c1` (stereo not drawn) [Example 407], the Ki is 501 to 2500 nM. For `CC(Cc1c[nH]c2ccc(F)cc12)NCCC(CNC(=O)c1cc(C(F)(F)F)cc(C(F)(F)F)c1)c1ccc(Cl)c(Cl)c1` (stereo not drawn) [Example 399], the Ki lay in the range of 501 to 2500 nM.

For `O=C(NCC(CCN1CCC(N2CCCCC2)CC1)c1ccc(Cl)c(Cl)c1)Nc1ccc(F)c(F)c1F` (stereo not drawn) [Example 363], the Ki is 501 to 2500 nM.

Turning to `O=C(NCC(CCNC1CCC1)c1ccc(Cl)c(Cl)c1)Nc1ccc(Cl)c(Cl)c1` (stereo not drawn) [Example 282], the Ki was in the range of 51 to 500 nM.

Consider `O=C(NCc1cc(C(F)(F)F)cc(C(F)(F)F)c1)C(CCNCCc1c[nH]c2ccc(F)cc12)c1ccc(Cl)c(Cl)c1` (stereo not drawn) [Example 386], for which the Ki fell in the range of 501 to 2500 nM. For `NC1CCN(CCC(CNC(=O)Nc2cc(Cl)cc(Cl)c2)c2ccc(Cl)c(Cl)c2)CC1` (stereo not drawn) [Example 322], the Ki was 501 to 2500 nM. On the same count and under the same terms, the figure for `CN(C)CCCNCCC(CNC(=O)Nc1cc(Cl)cc(Cl)c1)c1ccc(-c2ccccc2)cc1` (stereo not drawn) [Example 233] is 51 to 500 nM. In the case of `Cc1ccc2[nH]cc(CCNCCC(CNC(=O)c3cc(C(F)(F)F)cc(C(F)(F)F)c3)c3ccc(Cl)c(Cl)c3)c2c1` (stereo not drawn) [Example 410], the Ki lay in the range of 501 to 2500 nM. On the same count and under the same terms, under `CC(C)OCCCNCCC(CNC(=O)c1cc(C(F)(F)F)cc(C(F)(F)F)c1)c1ccc(Cl)c(Cl)c1` (stereo not drawn) [Example 409] stands 501 to 2500 nM. In the case of `COc1cc(NC(=O)NCC(CCN2CCC(N3CCCCC3)CC2)c2ccc(Cl)c(Cl)c2)cc(OC)c1` (stereo not drawn) [Example 370], the Ki lay in the range of 501 to 2500 nM. `O=C(NCC(CCN1CCN(c2ccc(O)cc2)CC1)c1ccc(Cl)c(Cl)c1)c1cc(C(F)(F)F)cc(C(F)(F)F)c1` (stereo not drawn) [Example 402]: the Ki was in the range of 501 to 2500 nM. Consider `O=C(NCC(CCN1CCC(N2CCCCC2)CC1)c1ccc(Cl)c(Cl)c1)Nc1ccc(Cl)cc1` (stereo not drawn) [Example 325], for which the Ki was in the range of 501 to 2500 nM. Consider `O=C(NCc1cc(C(F)(F)F)cc(C(F)(F)F)c1)C(CCNCCc1c[nH]c2ccccc12)c1ccc(Cl)c(Cl)c1` (stereo not drawn) [Example 385], for which the inhibition constant (Ki) was 501 to 2500 nM. `O=C(NCC(CCNCc1ccc2c(c1)OCO2)c1ccc(Cl)c(Cl)c1)Nc1cccc(C(F)(F)F)c1` (stereo not drawn) [Example 302]: the Ki was 501 to 2500 nM.

`Cc1ccc(C(CCN2CCCCC2)CNC(=O)Nc2ccc(Cl)c(Cl)c2)cc1` (stereo not drawn) [Example 352]: the Ki was 51 to 500 nM. In the case of `O=C(NCC(CCN1CCCC1)c1cccc(F)c1)Nc1cc(C(F)(F)F)cc(C(F)(F)F)c1` (stereo not drawn) [Example 341], the Ki was 501 to 2500 nM. Consider `Cc1ccc(C(CCN2CCC(N3CCCCC3)CC2)CNC(=O)Nc2cc(Cl)cc(Cl)c2)cc1` (stereo not drawn) [Example 351], for which the inhibition constant Ki lay in the range of 51 to 500 nM. Consider `O=S(=O)(NCC(CCN1CCC(N2CCCCC2)CC1)c1ccc(Cl)c(Cl)c1)c1cccc(C(F)(F)F)c1` (stereo not drawn) [Example 376], for which the Ki fell in the range of 501 to 2500 nM. Take `CN(C)CCCNCCC(CNC(=O)Nc1cc(Cl)cc(Cl)c1)c1ccc(-c2ccc(Cl)c(Cl)c2)cc1` (stereo not drawn) [Example 247]: the Ki lay in the range of 51 to 500 nM.

Take `O=C(NCC(CCNC1CCCC1)c1ccc(-c2ccc(Cl)c(Cl)c2)cc1)Nc1cc(Cl)cc(Cl)c1` (stereo not drawn) [Example 245]: the Ki lay in the range of 51 to 500 nM.
